This assay has as its system weedy Eleusine indica. Briefly: Post-emergence herbicidal efficacy of L-glufosinate, other herbicides and their combinations in greenhouse trials (observed control vs Colby expected). In kind it is in vivo. Particulars: for Control %: Table 1. On the procedure:
Evaluation of Post-Emergence Herbicidal Activity of Composition Under […]
Greenhouse trials were carried out to evaluate the efficacy of the combination of L-glufosinate and the other herbicides on weedy Eleusine indica.
The soil used was sandy clay loam—Sand: 68.0%; Silt: 8.0%; Clay: 24.0%.
All treatments were in 3 replications per treatment with a spray volume of […].
The expected efficacy of a combination of L-glufosinate and the other herbicides was calculated using the well-established Colby method. Any difference between the observed and “expected” efficacy could be attributed to synergy between the two compounds.
In the Colby method, the expected (or predicted) response of a combination of herbicides is calculated by taking the product of the observed response for each individual component of the combination when applied alone, divided by 100, and subtracting this value from the sum of the observed response for each component when applied alone. An unexpected enhancement in efficacy of the combination is then determined by comparing the observed response of the combination to the expected (or predicted) response as calculated from the observed response of each individual component alone. If the observed response of the combination is greater than the expected (or predicted) response, or stated conversely, if the difference between the observed and expected response is greater than zero, then the combination is said to be synergistic or unexpectedly effective (Colby, S. R., Weeds, 1967(15), p. 20-22). The Colby method requires only a single dose of each herbicide applied alone and the mixture of both doses. The formula used to calculate the expected efficacy (EE) which was compared with the observed efficacy (OE) to determine the efficacy of the present invention is explained herein below:
The expected efficacy for a combination of two active ingredients is as follows:
The expected efficacy for a combination of three active ingredients is as follows:
The percentage efficacy was calculated after 7, 14, 21, 28, 35 days of applications (DAA). The target weed was weedy Eleusine indica, and the concentration of the herbicide and the results are recorded in the table 1 below:
The percentage efficacy was calculated after 7 and 35 days of application (DAA). The target weed was weedy Eleusine indica, and the concentration of the herbicide and the results are recorded in the table 2 below:
The percentage efficacy was calculated after 3, 7, 14, 21, 28, 35 days of application (DAA). The target weed was weedy Eleusine indica, and the concentration of the herbicide and the results are recorded in the table 3 below:
The target weed was weedy Eleusine indica, and the concentration of the herbicide and the results are recorded in the table 4 below:
The percentage efficacy was calculated after 7, 14, 21, 28 and 35 days of application (DAA). The target weed was weedy Eleusine indica, and the concentration of the herbicide and the results are recorded in the table 5 below:
The percentage efficacy was calculated after 3, 7, 28, 35 days of application (DAA). The target weed was weedy Eleusine indica, and the concentration of the herbicide and the results are recorded in the table 6 below: […]

[1] abbreviates: Table 4, 3 DAA, g ai/h: L-glufosinate 150, 2,4-D 204.
The mark [2] stands for this setting: Table 4, 7 DAA, g ai/h: L-glufosinate 150, 2,4-D 204.
Setting [3] is: Table 4, 14 DAA, g ai/h: L-glufosinate 150, 2,4-D 204.
Where [4] appears, read: Table 4, 21 DAA, g ai/h: L-glufosinate 150, 2,4-D 204.
Where [5] appears, read: Table 4, 28 DAA, g ai/h: L-glufosinate 150, 2,4-D 204.
The mark [6] stands for this setting: Table 4, 35 DAA, g ai/h: L-glufosinate 150, 2,4-D 204.
Setting [7] is: 7 DAA, dose a.i. g/h: L-glufosinate 150, oxyfluorfen 107.1, imazethapyr 75, carfentrazone 7.5.
Where [8] appears, read: 14 DAA, dose a.i. g/h: L-glufosinate 150, oxyfluorfen 107.1, imazethapyr 75, carfentrazone 7.5.
The mark [9] stands for this setting: 21 DAA, dose a.i. g/h: L-glufosinate 150, oxyfluorfen 107.1, imazethapyr 75, carfentrazone 7.5.
Where [10] appears, read: 28 DAA, dose a.i. g/h: L-glufosinate 150, oxyfluorfen 107.1, imazethapyr 75, carfentrazone 7.5.
The mark [11] stands for this setting: 35 DAA, dose a.i. g/h: L-glufosinate 150, oxyfluorfen 107.1, imazethapyr 75, carfentrazone 7.5.
[12] abbreviates: Table 6, 3 DAA, g ai/h: L-glufosinate 150, clethodim 45.
The mark [13] stands for this setting: Table 6, 7 DAA, g ai/h: L-glufosinate 150, clethodim 45.
The mark [14] stands for this setting: Table 6, 28 DAA, g ai/h: L-glufosinate 150, clethodim 45.
Setting [15] is: Table 6, 35 DAA, g ai/h: L-glufosinate 150, clethodim 45.
[16] abbreviates: Table 3, 3 DAA, g ai/h: L-glufosinate 150, flumioxazin 30.
[17] abbreviates: Table 3, 7 DAA, g ai/h: L-glufosinate 150, flumioxazin 30.
Setting [18] is: Table 3, 14 DAA, g ai/h: L-glufosinate 150, flumioxazin 30.
The mark [19] stands for this setting: Table 3, 21 DAA, g ai/h: L-glufosinate 150, flumioxazin 30.
The mark [20] stands for this setting: Table 3, 28 DAA, g ai/h: L-glufosinate 150, flumioxazin 30.
The mark [21] stands for this setting: Table 3, 35 DAA, g ai/h: L-glufosinate 150, flumioxazin 30.
The mark [22] stands for this setting: Table 2, 7 DAA, g ai/h: L-glufosinate 150, glyphosate 379.
Setting [23] is: Table 2, 35 DAA, g ai/h: L-glufosinate 150, glyphosate 379.
Setting [24] is: Table 7, 7 DAA, g ai/h: L-glufosinate 150, haloxyfop 50.
Setting [25] is: Table 5, 7 DAA, g ai/h: L-glufosinate 150, triclopyr 288.
Setting [26] is: Table 5, 14 DAA, g ai/h: L-glufosinate 150, triclopyr 288.
[27] abbreviates: Table 5, 21 DAA, g ai/h: L-glufosinate 150, triclopyr 288.
Setting [28] is: Table 5, 28 DAA, g ai/h: L-glufosinate 150, triclopyr 288.
[29] abbreviates: Table 5, 35 DAA, g ai/h: L-glufosinate 150, triclopyr 288.

SMILES strings stand for the structures.

Experimental findings from US20230116080A1, “METHOD FOR CONTROLLING THE GROWTH OF UNDESIRABLE VEGETATION” (UPL Limited, priority 2021, published 2023) are described below.

As for `O=C(O)COc1ccc(Cl)cc1Cl` [2,4-D], the “% control” value runs as follows: under setting [1], 5%; under setting [2], 4%; under setting [3], 6.7%; under setting [4], 5%; under setting [5], 5%; under setting [6], 0%.

For the compound `Cc1nn(-c2cc(CC(Cl)C(=O)O)c(Cl)cc2F)c(=O)n1C(F)F` (stereo not shown) [Carfentrazone, carfentrazone], the Control % is, setting by setting: under setting [7], 14%; (7 DAA, dose a.i. g/h: carfentrazone 9.0, alone or with L-glufosinate 150) 16.7%; under setting [8], 12.3%; (14 DAA, dose a.i. g/h: carfentrazone 9.0, alone or with L-glufosinate 150) 16.7%; under setting [9], 11%; (21 DAA, dose a.i. g/h: carfentrazone 9.0, alone or with L-glufosinate 150) 14%. The Control % reads like this: under setting [10], 7.7%; (28 DAA, dose a.i. g/h: carfentrazone 9.0, alone or with L-glufosinate 150) 12.3%; under setting [11], 0%; (35 DAA, dose a.i. g/h: carfentrazone 9.0, alone or with L-glufosinate 150) 6.7%.

For `CCSC(C)CC1CC(=O)C(/C(CC)=N/OC/C=C/Cl)=C(O)C1` (stereo not shown) [Clethodim, clethodim], the “% control” value was 6.7% under setting [12], 15% under setting [13], 81.7% under setting [14] and 84.3% under setting [15].

With `C#CCN1C(=O)COc2cc(F)c(N3C(=O)C4=C(CCCC4)C3=O)cc21` [Flumioxazin, flumioxazin], the “% control” value under setting [16] is given as 5.0%; the “% control” value under setting [17] stood at 28.3%; the “% control” value under setting [18] turned out to be 21.7%; the “% control” value under setting [19] is 10%; the “% control” value under setting [20] stood at 5%; the “% control” value under setting [21] turned out to be 0%.

On to `O=C(O)CNCP(=O)(O)O` [Glyphosate, glyphosate], for which the “% control” value under setting [22] is 28.3% and the “% control” value under setting [23] was determined as 81.7%.

Take `CC(Oc1ccc(Oc2ncc(C(F)(F)F)cc2Cl)cc1)C(=O)O` (stereo not shown) [Haloxyfop, haloxyfop]: the “% control” value under setting [24] is recorded as 25%.

On to `CCc1cnc(C2=NC(C)(C(C)C)C(=O)N2)c(C(=O)O)c1` (stereo not shown) [Imazethapyr, imazethapyr], for which the Control % is, setting by setting: under setting [7], 8.3%; under setting [8], 12%; under setting [9], 12.7%; under setting [10], 12.7%; under setting [11], 10%.

Turning to `CP(=O)(O)CC[C@H](N)C(=O)O` [L-glufosinate], the Control % is 43.3% under setting [7]; 41.3% under setting [8]; 37.3% under setting [9]; 28.3% under setting [10]; 25.3% under setting [11]. Further, the “% control” value by setting is: under setting [22], 50.7%; under setting [23], 54.3%; under setting [16], 12.3%; under setting [17], 50.7%; under setting [18], 65.0%; under setting [19], 64.3%. Besides, the “% control” value reads like this: under setting [20], 59.3%; under setting [21], 54.3%; under setting [1], 12.3%; under setting [2], 50.7%; under setting [3], 65.0%; under setting [4], 64.3%. Moreover, the “% control” value came out at 59.3% under setting [5]; 54.3% under setting [6]; 50.7% under setting [25]; 65.0% under setting [26]; 64.3% under setting [27]; 59.3% under setting [28]. The “% control” value is, setting by setting: under setting [29], 54.3%; under setting [12], 12.3%; under setting [13], 50.7%; under setting [14], 59.3%; under setting [15], 54.3%; under setting [24], 50.7%.

As to `CCOc1cc(Oc2ccc(C(F)(F)F)cc2Cl)ccc1[N+](=O)[O-]` [Oxyfluorfen, oxyfluorfen], the Control % is, setting by setting: under setting [7], 44%; under setting [8], 40%; under setting [9], 37%; under setting [10], 28.3%; under setting [11], 23.3%.

With `O=C(O)COc1nc(Cl)c(Cl)cc1Cl` [Triclopyr, triclopyr], the “% control” value is given as 8% under setting [25]; 13.3% under setting [26]; 6.7% under setting [27]; 6.7% under setting [28]; 6.7% under setting [29].
